Laboratory results reported in patent US10799555B2, “PD-1 peptide inhibitors” (Leidos, Inc., priority 2016, dated 2020).
Residues, ends and D or L forms follow the SMILES beside them.

Columns and labels:
[1] = biological target: soluble recombinant human PD-1 receptor (Homo sapiens, UniProt Q15116); assay: Clonal phage ELISA of phage display library clones; format: binding; details: for Clonal Phase ELISA coated signal: after fifth round of panning; for Clonal Phase ELISA uncoated signal: uncoated (background)
Sequence of soluble recombinant human PD-1 receptor (Q15116 25-170 limits assumed): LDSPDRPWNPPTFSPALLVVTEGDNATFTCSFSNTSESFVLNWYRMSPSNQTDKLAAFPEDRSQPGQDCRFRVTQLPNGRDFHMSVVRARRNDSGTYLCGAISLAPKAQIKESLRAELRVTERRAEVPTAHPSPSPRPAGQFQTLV
Source text: The TriCo-20™ (TRICO-20™) and TriCo-16™ (TRICO-16™) Phage Display Peptide Libraries (Creative Biolabs, 45-1 Ramsey Road, Shirley, N.Y. 11967) were screened to identify binders of soluble recombinant human PD-1 receptor. After the fourth round of panning, obvious enrichment for specific binders was observed, and individual peptides were confirmed as weakly specific binders in a clonal phage ELISA. A fifth round of panning led to greater enrichment.

human PBMCs = format: cell-based; design: key: “x” indicates no effect; “−” indicates a possible low effect; “+” indicates some effect; “++” indicates a definite effect
mouse PD-1 = biological target: T1, mouse PD-1 (Mus musculus, UniProt Q02242); assay: BIACORE assay, mouse PD-1; format: binding; details: for Rmax / KA / Kd: ligand mouse PD-1 10,000 RU, 25° C.; for KA / Kd: steady state equilibrium; for binding / affinity towards mouse PD-1 (in words): BIACORE
T1 sequence (Q02242 25-288): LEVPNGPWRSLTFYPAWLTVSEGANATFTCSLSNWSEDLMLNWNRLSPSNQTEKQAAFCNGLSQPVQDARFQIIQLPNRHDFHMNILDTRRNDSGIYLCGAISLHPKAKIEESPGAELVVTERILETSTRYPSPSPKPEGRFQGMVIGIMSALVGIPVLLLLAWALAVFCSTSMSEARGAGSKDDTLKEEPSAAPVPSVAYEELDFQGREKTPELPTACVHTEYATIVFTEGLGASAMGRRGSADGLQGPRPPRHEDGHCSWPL
Procedure: (§1) BIACORE® assays were carried out using a BIACORE® T-200 at 25° C. The assay and regeneration buffers contained 10 mM HEPES (pH 7.4), 150 mM NaCl, 3 mM EDTA, and 0.05% P20. The immobilization buffer was 10 mM sodium acetate, pH 5.0. The flow rate used for immobilizing the ligand was 5 μl/min. The flow rate for kinetics analysis was 30 μl/min.
12,000 response units (RU) of human and 6000 RU of mouse PD-1 receptors were directly immobilized on flow cell 2 and flow cell 4 of the CMS chip by amine coupling method (EDC/NHS). The un-occupied sites were blocked with 1M ethanol amine. Scouting was performed at a single analyte concentration of 25 μM to confirm yes/no binding. Flow cell 1 was kept blank and used for reference subtraction. Binding of analyte to the ligand was monitored in real time.
Based on the scouting results, full kinetics were performed by immobilizing higher RU of the ligand to a new chip and analyte concentration at 25 μM, followed by serial dilution to 12.5, 6.25, 3.125, 1.562, 0.78 and 0 μM concentration or as indicated. Due to fast on rate and off rate, KD was determined by steady state equilibrium kinetics.
(§2) Chi square (χ2) analysis was carried out between the actual sensorgram and a sensorgram generated from the BIANALYSIS® software (black line) to determine the accuracy of the analysis. A χ2 value within 1-2 is considered significant (accurate) and below 1 is highly significant (highly accurate).

human PD-1 = human PD-1 (Homo sapiens, UniProt Q15116); assay: BIACORE assay, human PD-1; format: binding; details: for binding / affinity towards human PD-1 (in words): BIACORE; for Rmax / KA / Kd: ligand human PD-1 10,000 RU, 25° C.; for KA / Kd: steady state equilibrium
Sequence of human PD-1 (Q15116 25-288): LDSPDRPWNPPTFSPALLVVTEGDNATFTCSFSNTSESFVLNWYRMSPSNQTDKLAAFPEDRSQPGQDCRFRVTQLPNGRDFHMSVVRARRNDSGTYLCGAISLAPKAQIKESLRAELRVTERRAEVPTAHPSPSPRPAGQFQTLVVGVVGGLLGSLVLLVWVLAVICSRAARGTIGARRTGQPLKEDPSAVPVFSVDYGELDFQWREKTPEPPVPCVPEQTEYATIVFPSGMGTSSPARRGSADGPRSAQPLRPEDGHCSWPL
Procedure: as §1
[…] The un-occupied sites were blocked with 1M ethanol amine. Scouting was performed at a single analyte concentration of 25 μM to confirm yes/no binding. Flow cell 1 was kept blank and used for reference subtraction. Binding of analyte to the ligand was monitored in real time.
[…] Due to fast on rate and off rate, KD was determined by steady state equilibrium kinetics.
as §2

Molecule	Clonal Phase ELISA coated signal [1]	Clonal Phase ELISA uncoated signal [1]	IFNγ production (human PBMCs)	IL-2 production (human PBMCs)	IL-4 production (human PBMCs)	IL-6 production (human PBMCs)	IL-10 production (human PBMCs)	TNFα production (human PBMCs)	Rmax (mouse PD-1)	KA (mouse PD-1)	Kd (mouse PD-1)	binding / affinity towards human PD-1 (in words) (human PD-1)	Rmax (human PD-1)	KA (human PD-1)	Kd (human PD-1)	binding / affinity towards mouse PD-1 (in words) (mouse PD-1)
CSCC[C@H](NC(=O)CNC(=O)[C@@H](NC(=O)[C@H](Cc1c[nH]c2ccccc12)NC(=O)[C@H](Cc1c[nH]cn1)NC(=O)[C@H](CO)NC(=O)[C@H](CCCNC(=N)N)NC(=O)[C@@H](NC(=O)[C@H](CCC(N)=O)NC(=O)[C@H](Cc1ccc(O)cc1)NC(=O)[C@@H](NC(=O)[C@H](CCC(N)=O)NC(=O)[C@H](Cc1c[nH]cn1)NC(=O)[C@H](Cc1c[nH]cn1)NC(=O)[C@@H](N)Cc1c[nH]cn1)C(C)C)C(C)C)[C@@H](C)O)C(=O)N[C@@H](Cc1c[nH]cn1)C(=O)N[C@@H](CO)C(=O)NCC(=O)N[C@@H](Cc1c[nH]cn1)C(=O)N[C@@H](CC(=O)O)C(=O)O [HD20] (H-HHHQVYQVRSHWTGMHSGHD-OH; N-terminus and C-terminus assumed)	0.281	0.109	++	−	x	++	x	++	76 RU	4250 M⁻¹	235 µM	highest affinity	3.35 RU	318000 M⁻¹	3.41 µM	
CC[C@H](C)[C@H](NC(=O)[C@H](Cc1c[nH]c2ccccc12)NC(=O)[C@H](CCC(=O)O)NC(=O)[C@H](Cc1c[nH]cn1)NC(=O)[C@H](CCC(=O)O)NC(=O)[C@H](Cc1c[nH]cn1)NC(=O)[C@@H]1CCCN1C(=O)[C@H](CCCNC(=N)N)NC(=O)[C@@H](NC(=O)[C@H](Cc1c[nH]cn1)NC(=O)[C@H](Cc1c[nH]cn1)NC(=O)[C@H](CC(N)=O)NC(=O)[C@H](Cc1c[nH]cn1)NC(=O)[C@H](Cc1ccccc1)NC(=O)[C@H](CO)NC(=O)[C@H](C)NC(=O)[C@@H]1CCCN1C(=O)[C@H](CC(C)C)NC(=O)[C@H](CC(N)=O)NC(=O)[C@@H](N)Cc1c[nH]c2ccccc12)[C@@H](C)CC)C(=O)N[C@@H](CCC(N)=O)C(=O)O [WQ20] (H-WNLPASFHNHHIRPHEHEWIQ-OH; N-terminus and C-terminus assumed)	0.275	0.115	++	−	++	++	x	++	270 RU	1310 M⁻¹	761 µM		84.7 RU	3280 M⁻¹	305 µM	
CSCC[C@H](NC(=O)[C@H](CCCCN)NC(=O)[C@H](Cc1ccccc1)NC(=O)[C@H](Cc1c[nH]cn1)NC(=O)[C@H](Cc1c[nH]cn1)NC(=O)[C@H](Cc1ccc(O)cc1)NC(=O)[C@H](CO)NC(=O)[C@@H](N)CO)C(=O)N1CCC[C@H]1C(=O)N[C@@H](CCC(=O)O)C(=O)N[C@@H](CC(C)C)C(=O)N[C@@H](Cc1c[nH]cn1)C(=O)N[C@@H](Cc1ccccc1)C(=O)NCC(=O)N[C@@H](CCCCN)C(=O)N[C@@H](CC(N)=O)C(=O)N[C@H](C(=O)N[C@@H](Cc1ccccc1)C(=O)N[C@@H](Cc1c[nH]cn1)C(=O)N[C@@H](CCC(N)=O)C(=O)O)[C@@H](C)O [SQ20] (H-SSYHHFKMPELHFGKNTFHQ-OH; N-terminus and C-terminus assumed)	0.284	0.159	++	+	−	++	+	+	12.8 RU	21400 M⁻¹	46.8 µM	highest affinity	4.05 RU	194000 M⁻¹	5.16 µM	highest affinity
Mouse PD-L1: mouse PD-L1 used as analyte on immobilized mouse PD-1 in BIACORE [reference compound]									259 RU	2.75e+06 M⁻¹						
CC[C@H](C)[C@H](NC(=O)[C@H](CCCCN)NC(=O)[C@@H]1CCCN1C(=O)[C@H](CCSC)NC(=O)[C@@H]1CCCN1C(=O)[C@@H](NC(=O)[C@@H](NC(=O)[C@H](CCCNC(=N)N)NC(=O)[C@@H](NC(=O)[C@@H](N)CCC(N)=O)[C@@H](C)O)[C@@H](C)O)C(C)C)C(=O)N[C@@H](Cc1c[nH]cn1)C(=O)N[C@@H](Cc1c[nH]cn1)C(=O)N1CCC[C@H]1C(=O)N1CCC[C@H]1C(=O)N[C@@H](Cc1c[nH]c2ccccc12)C(=O)N[C@@H](CCC(N)=O)C(=O)N[C@@H](CC(N)=O)C(=O)N[C@H](C(=O)N[C@H](C(=O)N1CCC[C@H]1C(=O)O)C(C)C)C(C)C [QP20] (H-QTRTVPMPKIHHPPWQNVVP-OH; N-terminus and C-terminus assumed)	0.851	0.446	x	x	−	x	x	x	13.4 RU	18000 M⁻¹	55.4 µM		3.83 RU	93600 M⁻¹	10.7 µM	highest affinity
